Experimental data from patent publication US10717766B2, “Antimicrobial peptides and uses thereof” (TECHNION RESEARCH & DEVELOPMENT FOUNDATION LIMITED, priority 2016, dated 2020).
Read-outs that look alike come from different tables or passages of the source.

How the values were obtained:
Staphylococcus hominis [1] = assay: growth of Staphylococcus hominis after treatment with 0.5 mM peptide; format: cell-based; settings: 24 hours, 37° C. under agitation, FIG. 6
Experimental: (§1) Extended fragments of the LFKFFK (SEQ ID NO: 1) sequence were derived from Staphylococcus aureus (PSMα3 derivatives) in order to determine the minimum peptide length critical for the antibacterial activity. […] Therefore, the antibacterial activity of its fragments comprising SEQ ID NO: 1, as listed in Table 1, were examined on the growth of Staphylococcus epidermidis ATCC 12228 cells, Staphylococcus hominis, and Lactobacillus casei after 24 hours from treatment with 0.5 mM peptide at 37° C. under agitation compared to control (bacterial growth w/o peptide). Lactobacillus casei are probiotic bacteria. Therefore, the peptides listed in Table 1 were also tested against bacteria of the human flora.

[2] = test system: Staphylococcus epidermidis ATCC 12228; assay: antibacterial activity (MIC) of fragments against Staphylococcus epidermidis ATCC 12228; format: cell-based; settings: FIG. 5
Experimental: as §1

Micrococcus luteus = assay: diameter of the growth inhibition of Micrococcus luteus cells; format: cell-based; settings: for growth inhibition of Micrococcus luteus: FIG. 2A; for diameter of the growth inhibition of Micrococcus luteus: various concentrations
Source text: The anti-bacterial activity of LFKFFK peptide (SEQ ID NO: 1), KLFKFFK peptide (SEQ ID NO: 3) and control peptides with a hydrophobic/cationic amino-acid composition, IIKVIK (SEQ ID NO: 10) and IIKIIK (SEQ ID NO: 11), was examined by determining the diameter of the growth inhibition of Micrococcus luteus cells.

bacteria = settings: native full-length 22-residue peptide, cited from earlier work
Staphylococcus hominis [3] = assay: minimal inhibition concentration (MIC) against Staphylococcus hominis; format: cell-based; settings: O.D600 nm after 24 hours incubation at 37° C. with agitation, FIG. 4
Experimental: N-terminal acetylation of peptides is known to enhance fibril formation. Therefore, the bacterial growth of Staphylococcus hominis was tested by capped peptides of SEQ ID NO: 1 and 2. […] The lowest concentration at which no growth was observed is determined as the MIC. The experiment was performed in triplicates.

Question: Which “antibacterial effect against S. hominis (growth compared to control w/o peptide)” value (Staphylococcus hominis [1]) does the source give for “Ac-KLFKFFKD-NH2 (listed as Staphylococcus aureus) [compound 3]” here?
Answer: partially active

Question: Which “anti-bacterial activity (MIC) against Staphylococcus epidermidis ATCC 12228” value (from here on “anti-bacterial activity (MIC)”) [2] does the source give for “Ac-VAKLFKFFKDLLGKFL-NH2 (listed as Staphylococcus aureus) [peptide 8]” here?
Answer: fails to exhibit any antibacterial activity

Question: For “Ac-KLFKFFKDLL-NH2 (listed as Staphylococcus aureus) [compound 5]”, which “anti-bacterial activity (MIC)” value [2] is on record?
Answer: better anti-bacterial activity

Question: Which “growth inhibition of Micrococcus luteus” value (Micrococcus luteus) does the source give for “KLFKFFK (listed as Staphylococcus aureus)” here?
Answer: inhibit the growth

Question: And the “toxicity to Micrococcus Luteus compared with LFKFFK” value (Micrococcus luteus; FIG. 2B)?
Answer: even more toxic

Question: And the “diameter of the growth inhibition of Micrococcus luteus” value (Micrococcus luteus; FIG. 2B)?
Answer: dose-dependent effect

Question: Which results are given for “LFKFFK (listed as Staphylococcus aureus) [fragment of PSMalpha3]”?
Answer: growth inhibition of Micrococcus luteus (Micrococcus luteus): inhibit the growth; diameter of the growth inhibition of Micrococcus luteus (Micrococcus luteus; FIG. 2B): dose-dependent effect

Question: For MEFVAKLFKFFKDLLGKFLGNN [PSMalpha3], which antibacterial activity (bacteria) is on record?
Answer: lacks antibacterial activity

Question: What about the antibacterial activity (bacteria; listed as SEQ ID NO: 2) of the same substance?
Answer: lack an antibacterial activity

Question: Which “anti-bacterial activity (MIC)” value [2] does the source give for “Ac-KLFKFFKDLLG-NH2 (listed as Staphylococcus aureus) [compound 6]” here?
Answer: better anti-bacterial activity

Question: For “Ac-LFKFFK-NH2 (listed as Staphylococcus aureus) [compound 1]”, which “antibacterial effect against S. hominis (growth compared to control w/o peptide)” value (Staphylococcus hominis [1]) is on record?
Answer: partially active

Question: Which “antibacterial effect against S. hominis (growth compared to control w/o peptide)” value (Staphylococcus hominis [1]) does the source give for “Ac-KLFKFFK-NH2 (listed as Staphylococcus aureus) [compound 2]” here?
Answer: partially active

Question: And the MIC (Staphylococcus hominis [3])?
Answer: 15
